pEC50: −log10 of the molar value.
Target: T1, human OX2R (Homo sapiens, UniProt O43614)
T1 construct: expressed in transfected cells; host or cells: Chinese hamster ovary (CHO) cells, kept under G418 selection
T1 sequence (O43614 1-444): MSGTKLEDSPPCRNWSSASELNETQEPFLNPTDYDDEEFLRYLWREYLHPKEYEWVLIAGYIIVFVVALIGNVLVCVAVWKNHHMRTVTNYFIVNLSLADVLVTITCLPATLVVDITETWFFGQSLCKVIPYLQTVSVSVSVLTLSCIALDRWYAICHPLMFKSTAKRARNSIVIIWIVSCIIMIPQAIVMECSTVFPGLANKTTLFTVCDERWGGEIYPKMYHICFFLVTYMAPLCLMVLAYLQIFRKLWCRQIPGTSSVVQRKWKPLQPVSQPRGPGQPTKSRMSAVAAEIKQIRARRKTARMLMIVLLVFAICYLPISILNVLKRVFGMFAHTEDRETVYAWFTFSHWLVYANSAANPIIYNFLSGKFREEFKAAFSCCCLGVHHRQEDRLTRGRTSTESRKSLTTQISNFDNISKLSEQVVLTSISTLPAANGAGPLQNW
Experiment: IPOne (IP-One) orexin receptor agonist assay in CHO cells expressing human OX2R
Type: cell-based
Conditions: for pEC50: CHO cells expressing human OX2R, IP-One detection, 2 hours incubation, four parameter logistic fit, read-out: OX2R Potency, EC50; for % max agonist effect (Emax): human OX2R, percentage of sample raw value/mean max effect (reference compound at 1 uM with 100% activity)

Row | pEC50 | % max agonist effect (Emax) | SMILES
1 | 6.82 | 100.2% | CS(=O)(=O)N[C@H]1CCN(c2ncccc2C(F)F)[C@H]1CO[C@H]1CC[C@@H](c2ccccc2)CC1 [Example 124, N-((2R,3S)-1-(3-(difluoromethyl)pyridin-2-yl)-2-((((CIS)-4-phenylcyclohexyl)oxy)methyl)pyrrolidin-3-yl)methanesulfonamide]
2 | 6.85 | 97.7% | Cc1nc(N2CC[C@H](NS(C)(=O)=O)[C@@H]2CO[C@H]2CC[C@@H](c3ccccc3)CC2)cs1 [Example 109, N-((2R,3S)-1-(2-methylthiazol-4-yl)-2-((((CIS)-4-phenylcyclohexyl)oxy)methyl)pyrrolidin-3-yl)methanesulfonamide]
3 | 7.61 | 98.5% | CC(C)[C@H]1CC[C@@H](OC[C@H]2[C@@H](NS(C)(=O)=O)CCN2c2nccc(O)c2F)CC1 [Example 162, N-((2R,3S)-1-(3-fluoro-4-hydroxypyridin-2-yl)-2-((((CIS)-4-isopropylcyclohexyl)oxy)methyl)pyrrolidin-3-yl) methanesulfonamide]
4 | 7.77 | 101.1% | CS(=O)(=O)N[C@H]1CCN(c2cnccc2C(F)F)[C@H]1CO[C@H]1CC[C@@H](c2ccccc2)CC1 [Example 121, N-((2R,3S)-1-(4-(difluoromethyl)pyridin-3-yl)-2-((((CIS)-4-phenylcyclohexyl)oxy)methyl)pyrrolidin-3-yl)methanesulfonamide]
5 | 9.64 | 101.6% | CS(=O)(=O)N[C@H]1CCN(c2nccc(O)c2F)[C@H]1CO[C@H]1CC[C@@H](c2cccc(F)c2)CC1 [Example 96, N-((2R,3S)-1-(3-fluoro-4-hydroxypyridin-2-yl)-2-((((CIS)-4-(3-fluorophenyl)cyclohexyl)oxy)methyl)pyrrolidin-3-yl)methanesulfonamide]
6 | < 5.00 | 50.4% | COc1cncc(N2CC[C@H](NS(C)(=O)=O)[C@@H]2CO[C@H]2CC[C@@H](c3ccccc3)CC2)c1C [Example 128, N-((2R,3S)-1-(5-methoxy-4-methylpyridin-3-yl)-2-((((CIS)-4-phenylcyclohexyl)oxy)methyl)pyrrolidin-3-yl)methanesulfonamide]
7 | 6.59 | 97.7% | CS(=O)(=O)N[C@H]1CCN(c2cncc(O)n2)[C@H]1CO[C@H]1CC[C@@H](c2ccccc2)CC1 [Example 149, N-((2R,3S)-1-(6-hydroxypyrazin-2-yl)-2-((((CIS)-4-phenylcyclohexyl)oxy)methyl)pyrrolidin-3-yl)methanesulfonamide]
8 | 6.10 | 98% | Cc1ccnc(N2CC[C@H](NS(C)(=O)=O)[C@@H]2CO[C@H]2CC[C@@H](c3ccccc3)CC2)c1 [Example 144, N-((2R,3S)-1-(4-methylpyridin-2-yl)-2-((((CIS)-4-phenylcyclohexyl)oxy)methyl)pyrrolidin-3-yl)methanesulfonamide]
9 | 6.79 | 99.3% | CS(=O)(=O)N[C@H]1CCN(c2cccc(=O)[nH]2)[C@H]1CO[C@H]1CC[C@@H](c2ccccc2)CC1 [Example 148, N-((2R,3S)-1-(6-oxo-1,6-dihydropyridin-2-yl)-2-((((CIS)-4-phenylcyclohexyl)oxy)methyl)pyrrolidin-3-yl)methanesulfonamide]
10 | 5.62 | 93.7% | COc1ccnc(N2CC[C@H](NS(C)(=O)=O)[C@@H]2CO[C@H]2CC[C@@H](c3ccccc3)CC2)c1F [Example 115, N-((2R,3S)-1-(3-fluoro-4-methoxypyridin-2-yl)-2-((((CIS)-4-phenylcyclohexyl)oxy)methyl)pyrrolidin-3-yl)methanesulfonamide]

The remaining lines, values behind:

Row | SMILES | pEC50 | % max agonist effect (Emax)
11 | CS(=O)(=O)N[C@H]1CCN(c2ccccn2)[C@H]1CO[C@H]1CC[C@@H](c2ccccc2)CC1 [Example 16, N-((2R,3S)-2-((((CIS)-4-phenylcyclohexyl)oxy)methyl)-1-(pyridin-2-yl)pyrrolidin-3-yl)methanesulfonamide] | 6.76 | 101.3%
12 | Cc1nc(-c2ccccc2)sc1N1CC[C@H](NS(C)(=O)=O)[C@@H]1CO[C@H]1CC[C@@H](c2ccccc2)CC1 (relative stereo) [Example 11, N-((CIS)-1-(4-methyl-2-phenylthiazol-5-yl)-2-((((CIS)-4-phenylcyclohexyl)oxy)methyl)pyrrolidin-3-yl)methanesulfonamide] | 5.46 | 87.7%
13 | CS(=O)(=O)N[C@H]1CCN(c2cncc(O)c2)[C@H]1CO[C@H]1CC[C@@H](c2ccccc2)CC1 [Example 47, N-((2R,3S)-1-(5-hydroxypyridin-3-yl)-2-((((CIS)-4-phenylcyclohexyl)oxy)methyl)pyrrolidin-3-yl)methanesulfonamide] | 8.05 | 101.4%
14 | Cc1ncc(N2CC[C@H](NS(C)(=O)=O)[C@@H]2CO[C@H]2CC[C@@H](c3ccccc3)CC2)n1C [Example 32, N-((2R,3S)-1-(1,2-dimethyl-1H-imidazol-5-yl)-2-((((CIS)-4-phenylcyclohexyl)oxy)methyl)pyrrolidin-3-yl)methanesulfonamide] | 7.43 | 100.2%
15 | CS(=O)(=O)N[C@H]1CCN(c2cc(=O)c(F)cn2CC(F)F)[C@H]1CO[C@H]1CC[C@@H](c2ccccc2)CC1 [Example 89, N-((2R,3S)-1-(1-(2,2-difluoroethyl)-5-fluoro-4-oxo-1,4-dihydropyridin-2-yl)-2-((((CIS)-4-phenylcyclohexyl)oxy)methyl)pyrrolidin-3-yl)methanesulfonamide] | 6.96 | 98.9%
16 | Cc1ccncc1N1CC[C@H](NS(C)(=O)=O)[C@@H]1CO[C@H]1CC[C@@H](c2ccccc2)CC1 [Example 81, N-((2R,3S)-1-(4-Methylpyridin-3-yl)-2-((((CIS)-4-phenylcyclohexyl)oxy)methyl)pyrrolidin-3-yl)methanesulfonamide] | 7.61 | 100.9%
17 | CS(=O)(=O)N[C@H]1CCN(c2ccc(C(F)F)nc2)[C@H]1CO[C@H]1CC[C@@H](c2ccccc2)CC1 [Example 24, N-((2R,3S)-1-(6-(difluoromethyl)pyridin-3-yl)-2-((((CIS)-4-phenylcyclohexyl)-oxy)methyl)pyrrolidin-3-yl)methanesulfonamide] | 7.30 | 100.7%
18 | CS(=O)(=O)N[C@H]1CCN(c2ccncc2CO)[C@H]1CO[C@H]1CC[C@@H](c2ccccc2)CC1 [Example 56, N-((2R,3S)-1-(3-(hydroxymethyl)pyridin-4-yl)-2-((((CIS)-4-phenylcyclohexyl)oxy)methyl)pyrrolidin-3-yl)methanesulfonamide] | < 5.00 | 61.6%
19 | Cc1ncccc1N1CC[C@H](NS(C)(=O)=O)[C@@H]1CO[C@H]1CC[C@@H](c2ccccc2)CC1 [Example 82, N-((2R,3S)-1-(2-methylpyridin-3-yl)-2-((((CIS)-4-phenylcyclohexyl)oxy)methyl)pyrrolidin-3-yl)methanesulfonamide] | 5.47 | 92.4%
20 | CS(=O)(=O)N[C@H]1CCN(c2occc2C#N)[C@H]1CO[C@H]1CC[C@@H](c2ccccc2)CC1 [Example 39, N-((2R,3 S)-1-(3-cyanofuran-2-yl)-2-((((CIS)-4-phenylcyclohexyl)oxy)methyl)pyrrolidin-3-yl)methanesulfonamide] | 6.21 | 98.4%
21 | CS(=O)(=O)N[C@H]1CCN(c2cncc(C(F)(F)F)c2)[C@H]1CO[C@H]1CC[C@@H](c2ccccc2)CC1 [Example 50, N-((2R,3S)-2-((((CIS)-4-phenylcyclohexyl)oxy)methyl)-1-(5-(trifluoromethyl)pyridin-3-yl)pyrrolidin-3-yl)methanesulfonamide] | 6.02 | 95.1%
22 | CS(=O)(=O)N[C@H]1CCN(c2cncc(CO)c2)[C@H]1CO[C@H]1CC[C@@H](c2ccccc2)CC1 [Example 49, N-((2R,3S)-1-(5-(hydroxymethyl)pyridin-3-yl)-2-((((CIS)-4-phenylcyclohexyl)oxy)methyl)pyrrolidin-3-yl)methanesulfonamide] | 6.66 | 99.6%
23 | Cc1cc(N2CC[C@H](NS(C)(=O)=O)[C@@H]2CO[C@H]2CC[C@@H](c3ccccc3)CC2)cnc1CO [Example 45, N-((2R,3S)-1-(6-(hydroxymethyl)-5-methylpyridin-3-yl)-2-((((CIS)-4-phenylcyclohexyl)oxy)methyl)pyrrolidin-3-yl)methanesulfonamide] | 5.85 | 97.2%
24 | Cc1ncsc1N1CC[C@H](NS(C)(=O)=O)[C@@H]1CO[C@H]1CC[C@@H](c2ccccc2)CC1 [Example 83, N-((2R,3S)-1-(4-methylthiazol-5-yl)-2-((((CIS)-4-phenylcyclohexyl)oxy)methyl)pyrrolidin-3-yl)methanesulfonamide] | 5.97 | 94.8%
25 | CS(=O)(=O)N[C@H]1CCN(c2cncs2)[C@H]1CO[C@H]1CC[C@@H](c2ccccc2)CC1 [Example 26, N-((2R,3S)-2-((((CIS)-4-phenylcyclohexyl)oxy)methyl)-1-(thiazol-5-yl)pyrrolidin-3-yl)methanesulfonamide] | 6.35 | 99.0%

Source: patent publication US12312332B2 (Merck Sharp & Dohme LLC., priority 2019, dated 2025)
